Measured values as given in ChEMBL document CHEMBL5365394, “Design, synthesis and biological evaluation of novel spiro-quinazolinone derivatives as chitin synthase inhibitors and antifungal agents” (Eur J Med Chem, 2023).
Values after ≈ are worked out from the molar mass of the structure shown.

tested on: Aspergillus flavus; assay: Synergistic antifungal activity against Aspergillus flavus ATCC 16870 assessed as polyoxin B MIC incubated for 24 hrs by checkerboard broth microdilution method; type: functional; details: not given

SMILES | MIC
O=C(/C=C/C(=O)Nc1ccc(Cl)cc1Cl)Nc1ccc2c(c1)C(=O)NC1(CCSC1)N2 (stereo not given) | 16 µg/mL

tested on: Aspergillus flavus; assay: Antifungal activity against Aspergillus flavus ATCC 16870 assessed as inhibition of cell wall synthesis incubated for 24 hrs in absence of sorbitol; type: functional; details: not given

SMILES | MIC
O=C(/C=C/C(=O)Nc1ccc(Cl)cc1Cl)Nc1ccc2c(c1)C(=O)NC1(CCSC1)N2 (stereo not given) | 32 µg/mL (≈ 67 µM)

tested on: Candida tropicalis; assay: Inhibition of Candida tropicalis ATCC 750 chitin synthase using […] as substrate at 300 ug/ml incubated for 1 hr by absorbance based assay relative to control; details: dose 300.0 µg/ml

SMILES | inhibition
O=C(/C=C/C(=O)Nc1ccc(Cl)cc1Cl)Nc1ccc2c(c1)C(=O)NC1(CCSC1)N2 (stereo not given) | 73.9%

tested on: Aspergillus fumigatus; assay: Additive antifungal activity against Aspergillus fumigatus GIMCC 3.19 assessed as fractional inhibitory concentration index incubated for 24 hrs in presence of polyoxin B by checkerboard broth microdilution method; type: functional; details: not given

SMILES | fractional inhibitory concentration index (FICI)
O=C(/C=C/C(=O)Nc1ccc(Cl)cc1Cl)Nc1ccc2c(c1)C(=O)NC1(CCSC1)N2 (stereo not given) | 1.5

tested on: Candida albicans; assay: Additive antifungal activity against Candida albicans ATCC 76615 assessed as fractional inhibitory concentration index incubated for 24 hrs in presence of fluconazole by checkerboard broth microdilution method; type: functional; details: not given

SMILES | fractional inhibitory concentration index (FICI)
O=C(/C=C/C(=O)Nc1ccc(Cl)cc1Cl)Nc1ccc2c(c1)C(=O)NC1(CCSC1)N2 (stereo not given) | 1.5

tested on: Candida albicans; assay: Antifungal activity against Fluconazole-resistant Candida albicans ATCC 76615R assessed as fungal growth inhibition; type: functional; details: not given

SMILES | MIC
O=C(/C=C/C(=O)Nc1ccc(Cl)cc1Cl)Nc1ccc2c(c1)C(=O)NC1(CCSC1)N2 (stereo not given) | 32 µg/mL (≈ 67 µM)

tested on: Candida albicans; assay: Additive antifungal activity against Candida albicans ATCC 76615 assessed as fractional inhibitory concentration index incubated for 24 hrs in presence of polyoxin B by checkerboard broth microdilution method; type: functional; details: not given

SMILES | fractional inhibitory concentration index (FICI)
O=C(/C=C/C(=O)Nc1ccc(Cl)cc1Cl)Nc1ccc2c(c1)C(=O)NC1(CCSC1)N2 (stereo not given) | 1.25

tested on: Aspergillus fumigatus; assay: Antifungal activity against Fluconazole-resistant Aspergillus fumigatus GIMCC 3.19R assessed as fungal growth inhibition; type: functional; details: not given

SMILES | MIC
O=C(/C=C/C(=O)Nc1ccc(Cl)cc1Cl)Nc1ccc2c(c1)C(=O)NC1(CCSC1)N2 (stereo not given) | 16 µg/mL (≈ 33.5 µM)

tested on: Aspergillus flavus; assay: Additive antifungal activity against Aspergillus flavus ATCC 16870 assessed as fractional inhibitory concentration index incubated for 24 hrs in presence of fluconazole by checkerboard broth microdilution method; type: functional; details: not given

SMILES | fractional inhibitory concentration index (FICI)
O=C(/C=C/C(=O)Nc1ccc(Cl)cc1Cl)Nc1ccc2c(c1)C(=O)NC1(CCSC1)N2 (stereo not given) | 1.25

tested on: Candida albicans; assay: Synergistic antifungal activity against Candida albicans ATCC 76615 assessed as fluconazole MIC incubated for 24 hrs in by checkerboard broth microdilution method; type: functional; details: not given

SMILES | MIC
O=C(/C=C/C(=O)Nc1ccc(Cl)cc1Cl)Nc1ccc2c(c1)C(=O)NC1(CCSC1)N2 (stereo not given) | 2 µg/mL

tested on: Aspergillus flavus; assay: Antifungal activity against Aspergillus flavus ATCC 16870 assessed as inhibition of cell wall synthesis incubated for 24 hrs in presence of sorbitol; type: functional; details: not given

SMILES | MIC
O=C(/C=C/C(=O)Nc1ccc(Cl)cc1Cl)Nc1ccc2c(c1)C(=O)NC1(CCSC1)N2 (stereo not given) | 256 µg/mL

tested on: Aspergillus flavus; assay: Antifungal activity against Aspergillus flavus ATCC 16870 assessed as fungal growth inhibition incubated for 24 hrs by two-fold serial dilution method; type: functional; details: not given

SMILES | MIC
O=C(/C=C/C(=O)Nc1ccc(Cl)cc1Cl)Nc1ccc2c(c1)C(=O)NC1(CCSC1)N2 (stereo not given) | 8 µg/mL (≈ 16.8 µM)

tested on: Aspergillus fumigatus; assay: Synergistic antifungal activity against Aspergillus fumigatus GIMCC 3.19 assessed as fluconazole MIC incubated for 24 hrs in by checkerboard broth microdilution method; type: functional; details: not given

SMILES | MIC
O=C(/C=C/C(=O)Nc1ccc(Cl)cc1Cl)Nc1ccc2c(c1)C(=O)NC1(CCSC1)N2 (stereo not given) | 2 µg/mL

tested on: Cryptococcus neoformans; assay: Antifungal activity against Cryptococcus neoformans ATCC 32719 assessed as fungal growth inhibition incubated for 24 hrs by two-fold serial dilution method; type: functional; details: not given

SMILES | MIC
O=C(/C=C/C(=O)Nc1ccc(Cl)cc1Cl)Nc1ccc2c(c1)C(=O)NC1(CCSC1)N2 (stereo not given) | 8 µg/mL (≈ 16.8 µM)

tested on: Candida albicans; assay: Synergistic antifungal activity against Candida albicans ATCC 76615 assessed as polyoxin B MIC incubated for 24 hrs by checkerboard broth microdilution method; type: functional; details: not given

SMILES | MIC
O=C(/C=C/C(=O)Nc1ccc(Cl)cc1Cl)Nc1ccc2c(c1)C(=O)NC1(CCSC1)N2 (stereo not given) | 2 µg/mL

tested on: Aspergillus fumigatus; assay: Antifungal activity against Aspergillus fumigatus GIMCC 3.19 assessed as inhibition of cell wall synthesis incubated for 24 hrs in presence of sorbitol; type: functional; details: not given

SMILES | MIC
O=C(/C=C/C(=O)Nc1ccc(Cl)cc1Cl)Nc1ccc2c(c1)C(=O)NC1(CCSC1)N2 (stereo not given) | 128 µg/mL

tested on: not listed separately; assay: Inhibition of Candida tropicalis ATCC 750 chitin synthase using UDP-GlcNAc as substrate incubated for 1 hr by absorbance based assay; details: not given

SMILES | IC50
O=C(/C=C/C(=O)Nc1ccc(Cl)cc1Cl)Nc1ccc2c(c1)C(=O)NC1(CCSC1)N2 (stereo not given) | 137 µM

tested on: Aspergillus flavus; assay: Antifungal activity against Fluconazole-resistant Aspergillus flavus ATCC 16870R assessed as fungal growth inhibition; type: functional; details: not given

SMILES | MIC
O=C(/C=C/C(=O)Nc1ccc(Cl)cc1Cl)Nc1ccc2c(c1)C(=O)NC1(CCSC1)N2 (stereo not given) | 32 µg/mL (≈ 67 µM)

tested on: Cryptococcus neoformans; assay: Synergistic antifungal activity against Cryptococcus neoformans ATCC 32719 assessed as polyoxin B MIC incubated for 24 hrs in by checkerboard broth microdilution method; type: functional; details: not given

SMILES | MIC
O=C(/C=C/C(=O)Nc1ccc(Cl)cc1Cl)Nc1ccc2c(c1)C(=O)NC1(CCSC1)N2 (stereo not given) | 16 µg/mL

tested on: Cryptococcus neoformans; assay: Synergistic antifungal activity against Cryptococcus neoformans ATCC 32719 assessed as fluconazole MIC incubated for 24 hrs in by checkerboard broth microdilution method; type: functional; details: not given

SMILES | MIC
O=C(/C=C/C(=O)Nc1ccc(Cl)cc1Cl)Nc1ccc2c(c1)C(=O)NC1(CCSC1)N2 (stereo not given) | 2 µg/mL

tested on: Aspergillus flavus; assay: Synergistic antifungal activity against Aspergillus flavus ATCC 16870 assessed as fluconazole MIC incubated for 24 hrs in by checkerboard broth microdilution method; type: functional; details: not given

SMILES | MIC
O=C(/C=C/C(=O)Nc1ccc(Cl)cc1Cl)Nc1ccc2c(c1)C(=O)NC1(CCSC1)N2 (stereo not given) | 4 µg/mL

tested on: Aspergillus fumigatus; assay: Antifungal activity against Aspergillus fumigatus GIMCC 3.19 assessed as fungal growth inhibition incubated for 24 hrs by two-fold serial dilution method; type: functional; details: not given

SMILES | MIC
O=C(/C=C/C(=O)Nc1ccc(Cl)cc1Cl)Nc1ccc2c(c1)C(=O)NC1(CCSC1)N2 (stereo not given) | 8 µg/mL (≈ 16.8 µM)

tested on: Cryptococcus neoformans; assay: Additive antifungal activity against Cryptococcus neoformans ATCC 32719 assessed as fractional inhibitory concentration index incubated for 24 hrs in presence of polyoxin B by checkerboard broth microdilution method; type: functional; details: not given

SMILES | fractional inhibitory concentration index (FICI)
O=C(/C=C/C(=O)Nc1ccc(Cl)cc1Cl)Nc1ccc2c(c1)C(=O)NC1(CCSC1)N2 (stereo not given) | 1.5

tested on: Aspergillus flavus; assay: Additive antifungal activity against Aspergillus flavus ATCC 16870 assessed as fractional inhibitory concentration index incubated for 24 hrs in presence of polyoxin B by checkerboard broth microdilution method; type: functional; details: not given

SMILES | fractional inhibitory concentration index (FICI)
O=C(/C=C/C(=O)Nc1ccc(Cl)cc1Cl)Nc1ccc2c(c1)C(=O)NC1(CCSC1)N2 (stereo not given) | 2

tested on: Aspergillus fumigatus; assay: Synergistic antifungal activity against Aspergillus fumigatus GIMCC 3.19 assessed as fractional inhibitory concentration index incubated for 24 hrs in presence of fluconazole by checkerboard broth microdilution method; type: functional; details: not given

SMILES | fractional inhibitory concentration index (FICI)
O=C(/C=C/C(=O)Nc1ccc(Cl)cc1Cl)Nc1ccc2c(c1)C(=O)NC1(CCSC1)N2 (stereo not given) | 0.75

tested on: Candida albicans; assay: Antifungal activity against Candida albicans ATCC 76615 assessed as fungal growth inhibition incubated for 24 hrs by two-fold serial dilution method; type: functional; details: not given

SMILES | MIC
O=C(/C=C/C(=O)Nc1ccc(Cl)cc1Cl)Nc1ccc2c(c1)C(=O)NC1(CCSC1)N2 (stereo not given) | 8 µg/mL (≈ 16.8 µM)

tested on: Cryptococcus neoformans; assay: Additive antifungal activity against Cryptococcus neoformans ATCC 32719 assessed as fractional inhibitory concentration index incubated for 24 hrs in presence of fluconazole by checkerboard broth microdilution method; type: functional; details: not given

SMILES | fractional inhibitory concentration index (FICI)
O=C(/C=C/C(=O)Nc1ccc(Cl)cc1Cl)Nc1ccc2c(c1)C(=O)NC1(CCSC1)N2 (stereo not given) | 1.5

tested on: Aspergillus fumigatus; assay: Antifungal activity against Aspergillus fumigatus GIMCC 3.19 assessed as inhibition of cell wall synthesis incubated for 24 hrs in absence of sorbitol; type: functional; details: not given

SMILES | MIC
O=C(/C=C/C(=O)Nc1ccc(Cl)cc1Cl)Nc1ccc2c(c1)C(=O)NC1(CCSC1)N2 (stereo not given) | 16 µg/mL (≈ 33.5 µM)

tested on: Cryptococcus neoformans; assay: Antifungal activity against Fluconazole-resistant Cryptococcus neoformans ATCC 32719R assessed as fungal growth inhibition; type: functional; details: not given

SMILES | MIC
O=C(/C=C/C(=O)Nc1ccc(Cl)cc1Cl)Nc1ccc2c(c1)C(=O)NC1(CCSC1)N2 (stereo not given) | 32 µg/mL (≈ 67 µM)

tested on: Candida albicans; assay: Antifungal activity against Candida albicans ATCC 76615 assessed as inhibition of cell wall synthesis incubated for 24 hrs in absence of sorbitol; type: functional; details: not given

SMILES | MIC
O=C(/C=C/C(=O)Nc1ccc(Cl)cc1Cl)Nc1ccc2c(c1)C(=O)NC1(CCSC1)N2 (stereo not given) | 16 µg/mL (≈ 33.5 µM)

tested on: Candida albicans; assay: Antifungal activity against Candida albicans ATCC 76615 assessed as inhibition of cell wall synthesis incubated for 24 hrs in presence of sorbitol; type: functional; details: not given

SMILES | MIC
O=C(/C=C/C(=O)Nc1ccc(Cl)cc1Cl)Nc1ccc2c(c1)C(=O)NC1(CCSC1)N2 (stereo not given) | 256 µg/mL

tested on: Cryptococcus neoformans; assay: Antifungal activity against Cryptococcus neoformans ATCC 32719 assessed as inhibition of cell wall synthesis incubated for 24 hrs in presence of sorbitol; type: functional; details: not given

SMILES | MIC
O=C(/C=C/C(=O)Nc1ccc(Cl)cc1Cl)Nc1ccc2c(c1)C(=O)NC1(CCSC1)N2 (stereo not given) | 128 µg/mL

tested on: Cryptococcus neoformans; assay: Antifungal activity against Cryptococcus neoformans ATCC 32719 assessed as inhibition of cell wall synthesis incubated for 24 hrs in absence of sorbitol; type: functional; details: not given

SMILES | MIC
O=C(/C=C/C(=O)Nc1ccc(Cl)cc1Cl)Nc1ccc2c(c1)C(=O)NC1(CCSC1)N2 (stereo not given) | 16 µg/mL (≈ 33.5 µM)

tested on: Aspergillus fumigatus; assay: Synergistic antifungal activity against Aspergillus fumigatus GIMCC 3.19 assessed as polyoxin B MIC incubated for 24 hrs by checkerboard broth microdilution method; type: functional; details: not given

SMILES | MIC
O=C(/C=C/C(=O)Nc1ccc(Cl)cc1Cl)Nc1ccc2c(c1)C(=O)NC1(CCSC1)N2 (stereo not given) | 8 µg/mL

tested on: Candida albicans; assay: Antifungal activity against Micafungin-resistant Candida albicans ATCC 76615R assessed as fungal growth inhibition; type: functional; details: not given

SMILES | MIC
O=C(/C=C/C(=O)Nc1ccc(Cl)cc1Cl)Nc1ccc2c(c1)C(=O)NC1(CCSC1)N2 (stereo not given) | 16 µg/mL (≈ 33.5 µM)
